Experimental data reported in PubChem BioAssay (NCI).
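The compound was tested at five concentrations on cells cultured in 96-well plates, with a 48-hour exposure period. Here, GI50 denotes the concentration required for 50% inhibition of growth. TGI denotes the concentration required for complete inhibition of growth.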

How the values were obtained:
Assay in all cases: NCI-60 cell line screen, 48 h
786-0 renal = system: 786-0 renal
A498 renal = system: A498 renal
A549 NSCLC = system: A549 NSCLC
ACHN renal = system: ACHN renal
BT-549 breast = system: BT-549 breast
CAKI-1 renal = system: CAKI-1 renal
CCRF-CEM leukemia = system: CCRF-CEM leukemia
COLO 205 colon = system: COLO 205 colon
DU-145 prostate = system: DU-145 prostate
EKVX NSCLC = system: EKVX NSCLC
HCC-2998 colon = system: HCC-2998 colon
HCT-116 colon = system: HCT-116 colon
HCT-15 colon = system: HCT-15 colon
HL-60(TB) leukemia = system: HL-60(TB) leukemia
HOP-62 NSCLC = system: HOP-62 NSCLC
HOP-92 NSCLC = system: HOP-92 NSCLC
HS 578T breast = system: HS 578T breast
HT29 colon = system: HT29 colon
IGROV1 ovarian = system: IGROV1 ovarian
K-562 leukemia = system: K-562 leukemia
KM12 colon = system: KM12 colon
LOX IMVI melanoma = system: LOX IMVI melanoma
M14 melanoma = system: M14 melanoma
MALME-3M melanoma = system: MALME-3M melanoma
MCF7 breast = system: MCF7 breast
MDA-MB-231 breast = system: MDA-MB-231 breast
MDA-MB-435 = system: MDA-MB-435
MOLT-4 leukemia = system: MOLT-4 leukemia
NCI-H226 lung = system: NCI-H226 lung

## COc1ccc(CC(C)=C(c2ccc(OCCN3CCCC3)cc2)c2ccc(OCCN3CCCC3)cc2)cc1
786-0 renal
  GI50: 2.78 µM
  TGI: 6.05 µM
A498 renal
  GI50: 3.01 µM
  TGI: 6.28 µM
A549 NSCLC
  GI50: 3.1 µM
  TGI: 7.39 µM
ACHN renal
  GI50: 3.36 µM
  TGI: 6.48 µM
BT-549 breast
  GI50: 3.04 µM
  TGI: 6.35 µM
CAKI-1 renal
  GI50: 4 µM
  TGI: 7.31 µM
CCRF-CEM leukemia
  GI50: 3.97 µM
  TGI: 11.9 µM
COLO 205 colon
  GI50: 0.904 µM
  TGI: 4.55 µM
DU-145 prostate
  GI50: 3.32 µM
  TGI: 6.43 µM
EKVX NSCLC
  GI50: 3.68 µM
  TGI: 7.02 µM
HCC-2998 colon
  GI50: 2.46 µM
  TGI: 5.38 µM
HCT-116 colon
  GI50: 1.76 µM
  TGI: 5.25 µM
HCT-15 colon
  GI50: 1.28 µM
  TGI: 4.36 µM
HL-60(TB) leukemia
  GI50: 4.14 µM
  TGI: 8.53 µM
HOP-62 NSCLC
  GI50: 3.74 µM
  TGI: 7.93 µM
HOP-92 NSCLC
  GI50: 0.773 µM
  TGI: 3.92 µM
HS 578T breast
  GI50: 2.99 µM
  TGI: 7.17 µM
HT29 colon
  GI50: 0.84 µM
  TGI: 3.31 µM
IGROV1 ovarian
  GI50: 3.78 µM
  TGI: 7.16 µM
K-562 leukemia
  GI50: 0.497 µM
  TGI: 1.28 µM
KM12 colon
  GI50: 3.49 µM
  TGI: 6.77 µM
LOX IMVI melanoma
  GI50: 1.07 µM
  TGI: 3.94 µM
M14 melanoma
  GI50: 0.722 µM
  TGI: 2.5 µM
MALME-3M melanoma
  GI50: 3.57 µM
  TGI: 6.81 µM
MCF7 breast
  GI50: 0.841 µM
  TGI: 3.2 µM
MDA-MB-231 breast
  GI50: 3.25 µM
  TGI: 6.44 µM
MDA-MB-435
  GI50: 0.721 µM
  TGI: 2.57 µM
MOLT-4 leukemia
  GI50: 2.07 µM
  TGI: 5.96 µM
NCI-H226 lung
  GI50: 3.2 µM
